Laboratory results as given in PubChem BioAssay AID328 (DTP/NCI, 2004).
Values joined by “and” are separate entries in the source; they are usually repeats but may differ in a detail not shown here. Equal entries are not always repeated. Inconclusive results and toxic doses are left out.

System: BDF1 mice, P388 leukemia ip, median survival T/C
Experiment: NCI In Vivo Anticancer Drug Screen. Data for tumor model P388 Leukemia (intraperitoneal) in B6D2F1 (BDF1) mice
Details: endpoint: median survival time, higher = longer survival
Summary of the method: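 Read-out is survival of treated animals expressed relative to the vehicle group, as a T/C ratio.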

[1] = dose: 100.0 mg/kg/injection, schedule: Q01DX009 (ip), vehicle: saline with Tween-80
[2] = dose: 200.0 mg/kg/injection, schedule: Q01DX009 (ip), vehicle: saline with Tween-80
[3] = dose: 12.5 mg/kg/injection, schedule: Q01DX009 (ip), vehicle: Klucel (hydroxypropylcellulose) (HPC)
[4] = dose: 12.5 mg/kg/injection, schedule: Q04DX003 (ip), vehicle: saline
[5] = dose: 25.0 mg/kg/injection, schedule: Q01DX009 (ip), vehicle: Klucel (hydroxypropylcellulose) (HPC)
[6] = dose: 25.0 mg/kg/injection, schedule: Q04DX003 (ip), vehicle: saline
[7] = dose: 100.0 mg/kg/injection, schedule: Q01DX001 (ip), vehicle: Klucel (hydroxypropylcellulose) (HPC)
[8] = dose: 100.0 mg/kg/injection, schedule: Q01DX009 (ip), vehicle: Klucel (hydroxypropylcellulose) (HPC)
[9] = dose: 200.0 mg/kg/injection, schedule: Q01DX001 (ip), vehicle: Klucel (hydroxypropylcellulose) (HPC)
[10] = dose: 200.0 mg/kg/injection, schedule: Q01DX009 (ip), vehicle: Klucel (hydroxypropylcellulose) (HPC)
[11] = dose: 400.0 mg/kg/injection, schedule: Q01DX001 (ip), vehicle: Klucel (hydroxypropylcellulose) (HPC)
[12] = dose: 50.0 mg/kg/injection, schedule: Q01DX009 (ip), vehicle: other
[13] = dose: 200.0 mg/kg/injection, schedule: Q01DX009 (ip), vehicle: other
[14] = dose: 50.0 mg/kg/injection, schedule: Q01DX009 (ip), vehicle: saline
[15] = dose: 50.0 mg/kg/injection, schedule: Q04DX003 (ip), vehicle: saline
[16] = dose: 100.0 mg/kg/injection, schedule: Q04DX003 (ip), vehicle: saline
[17] = dose: 75.0 mg/kg/injection, schedule: Q01DX001 (ip), vehicle: Klucel (hydroxypropylcellulose) (HPC)
[18] = dose: 100.0 mg/kg/injection, schedule: Q04DX003 (ip), vehicle: Klucel (hydroxypropylcellulose) (HPC)
[19] = dose: 100.0 mg/kg/injection, schedule: Q04DX003 (ip), vehicle: saline with Tween-80
[20] = dose: 200.0 mg/kg/injection, schedule: Q04DX003 (ip), vehicle: saline with Tween-80
[21] = dose: 400.0 mg/kg/injection, schedule: Q04DX003 (ip), vehicle: saline with Tween-80

For `CSC1SCC2C(=O)N(C)C(C(C)C)C(=O)OCC(NC(=O)c3cnc4ccccc4n3)C(=O)NC(C)C(=O)N(C)C1C(=O)N(C)C(C(C)C)C(=O)OCC(NC(=O)c1cnc3ccccc3n1)C(=O)NC(C)C(=O)N2C` (configuration not stated), the T/C (dose: 0.4 micrograms/kg/injection, schedule: Q01DX009 (ip), vehicle: saline with Tween-80) was 86 % of control, the T/C (dose: 0.9 micrograms/kg/injection, schedule: Q01DX009 (ip), vehicle: saline with Tween-80) was 89 % of control and the T/C (dose: 1.9 micrograms/kg/injection, schedule: Q01DX009 (ip), vehicle: saline with Tween-80) was 112 % of control. For the same compound, the T/C (dose: 3.8 micrograms/kg/injection, schedule: Q01DX009 (ip), vehicle: saline with Tween-80) was 96 % of control, the T/C (dose: 5.0 micrograms/kg/injection, schedule: Q01DX010 (ip), vehicle: saline) was 118 % of control and the T/C (dose: 20.0 micrograms/kg/injection, schedule: Q01DX010 (ip), vehicle: saline) was 95 % of control. For the same compound, the T/C (dose: 30.0 micrograms/kg/injection, schedule: Q01DX009 (ip), vehicle: saline with Tween-80) was 175 % of control.

For `CN(C)CCCNc1cc(/C=C/c2cccc3ccccc23)nc2ccccc12`, the T/C (dose: 50.0 mg/kg/injection, schedule: Q01DX009 (ip), vehicle: saline with Tween-80) was 95 % of control, the T/C [1] was 88 % of control and the T/C [2] was 101 % of control.

`[Se]c1nccn2cnnc12` was tested, and the T/C (dose: 6.25 mg/kg/injection, schedule: Q01DX001 (ip), vehicle: saline with Tween-80) was 122 % of control, the T/C (dose: 12.5 mg/kg/injection, schedule: Q01DX001 (ip), vehicle: saline with Tween-80) was 105 % of control and the T/C (dose: 25.0 mg/kg/injection, schedule: Q01DX001 (ip), vehicle: saline with Tween-80) was 103 % of control.

`Clc1ccc2nc(CI)c(CI)nc2c1` was tested, and the T/C (dose: 3.12 mg/kg/injection, schedule: Q01DX009 (ip), vehicle: Klucel (hydroxypropylcellulose) (HPC)) was 100 % of control, the T/C (dose: 6.25 mg/kg/injection, schedule: Q01DX009 (ip), vehicle: Klucel (hydroxypropylcellulose) (HPC)) was 100 % of control and 122 % of control and the T/C (dose: 6.25 mg/kg/injection, schedule: Q04DX003 (ip), vehicle: saline) was 108 % of control. For the same compound, the T/C [3] was 88 % of control and 100 % of control, the T/C [4] was 108 % of control and the T/C (dose: 22.0 mg/kg/injection, schedule: Q01DX009 (ip), vehicle: saline with Tween-80) was 122 % of control. For the same compound, the T/C [5] was 95 % of control, the T/C [6] was 104 % of control and the T/C (dose: 33.0 mg/kg/injection, schedule: Q01DX009 (ip), vehicle: saline with Tween-80) was 113 % of control.

In the case of `CC(C)(O)c1cnc(OCc2ccccc2)nc1OCc1ccccc1`, the T/C [7] is reported as 109 % of control, the T/C [8] is reported as 95 % of control and the T/C [9] is reported as 104 % of control. The T/C [10] was 91 % of control, the T/C [11] was 95 % of control and the T/C (dose: 400.0 mg/kg/injection, schedule: Q01DX009 (ip), vehicle: Klucel (hydroxypropylcellulose) (HPC)) was 86 % of control.

With `OP(=S)(c1ccccc1)c1ccccc1` the T/C [12] was 110 % of control, the T/C (dose: 100.0 mg/kg/injection, schedule: Q01DX009 (ip), vehicle: other) was 106 % of control and the T/C [13] was 108 % of control.

With `COc1ccc(C)cc1NN` the T/C (dose: 12.5 mg/kg/injection, schedule: Q01DX009 (ip), vehicle: saline) was 100 % of control, the T/C [14] was 100 % of control and the T/C [15] was 109 % of control. For the same compound, the T/C [16] was 104 % of control and the T/C (dose: 200.0 mg/kg/injection, schedule: Q04DX003 (ip), vehicle: saline) was 95 % of control.

`COc1ccc2c3csc4ccccc4c-3nc2c1` was tested, and the T/C [3] was 109 % of control, the T/C [5] was 109 % of control and the T/C (dose: 25.0 mg/kg/injection, schedule: Q04DX003 (ip), vehicle: Klucel (hydroxypropylcellulose) (HPC)) was 100 % of control and 122 % of control. For the same compound, the T/C (dose: 50.0 mg/kg/injection, schedule: Q04DX003 (ip), vehicle: Klucel (hydroxypropylcellulose) (HPC)) was 109 % of control, the T/C [17] was 112 % of control and the T/C [18] was 104 % of control and 105 % of control. For the same compound, the T/C (dose: 150.0 mg/kg/injection, schedule: Q01DX001 (ip), vehicle: Klucel (hydroxypropylcellulose) (HPC)) was 100 % of control.

In the case of `CC(/C=C/c1ccccc1)=N\NC(=O)CN(C)C`, the T/C [14] is reported as 94 % of control and the T/C (dose: 100.0 mg/kg/injection, schedule: Q01DX009 (ip), vehicle: saline) is reported as 97 % of control.

In the case of `CCC(C)C(O)C(C(=O)O)C1CCCCC1` (configuration not stated), the T/C (dose: 50.0 mg/kg/injection, schedule: Q01DX005 (ip), vehicle: saline with Tween-80) is reported as 100 % of control, the T/C (dose: 100.0 mg/kg/injection, schedule: Q01DX005 (ip), vehicle: saline with Tween-80) is reported as 95 % of control and the T/C (dose: 200.0 mg/kg/injection, schedule: Q01DX005 (ip), vehicle: saline with Tween-80) is reported as 86 % of control.

`O=C1CCc2c(Br)cccc21` was tested, and the T/C [19] was 110 % of control, the T/C [20] was 115 % of control and the T/C [21] was 110 % of control.

In the case of `COC(=O)c1cc(=O)n(-c2ccccc2F)c(SC)n1`, the T/C [18] is reported as 116 % of control.

With `CCCC(C#N)(CCCl)c1ccccc1` (configuration not stated) the T/C [1] was 100 % of control, the T/C [2] was 108 % of control and the T/C (dose: 400.0 mg/kg/injection, schedule: Q01DX009 (ip), vehicle: saline with Tween-80) was 112 % of control.

For `CSC(N)=Nc1cccc2c1CCCC2`, the T/C [15] was 108 % of control and the T/C [16] was 108 % of control.

In the case of `c1ccc(-n2nc3c(c2OCCN2CCCC2)CCCc2ccccc2-3)cc1`, the T/C (dose: 66.0 mg/kg/injection, schedule: Q04DX003 (ip), vehicle: saline with Tween-80) is reported as 108 % of control and the T/C [19] is reported as 104 % of control and 116 % of control.

`CCN(C(C)C)C(C)C` was tested, and the T/C (dose: 25.0 mg/kg/injection, schedule: Q04DX003 (ip), vehicle: saline with Tween-80) was 100 % of control, the T/C (dose: 50.0 mg/kg/injection, schedule: Q04DX003 (ip), vehicle: saline with Tween-80) was 100 % of control and the T/C [19] was 100 % of control.

`O=C(CNC(=O)c1ccc(C(=O)NCC(=O)Nc2ccc(C3=NCCCN3)cc2)cc1)Nc1ccc(C2=NCCCN2)cc1` was tested, and the T/C (dose: 11.0 mg/kg/injection, schedule: Q04DX003 (ip), vehicle: saline) was 100 % of control, the T/C (dose: 16.0 mg/kg/injection, schedule: Q04DX003 (ip), vehicle: saline) was 113 % of control and the T/C (dose: 25.0 mg/kg/injection, schedule: Q01DX001 (ip), vehicle: Klucel (hydroxypropylcellulose) (HPC)) was 96 % of control. The T/C (dose: 50.0 mg/kg/injection, schedule: Q01DX001 (ip), vehicle: Klucel (hydroxypropylcellulose) (HPC)) was 103 % of control, the T/C (dose: 66.0 mg/kg/injection, schedule: Q04DX003 (ip), vehicle: saline) was 168 % of control and the T/C [17] was 107 % of control. For the same compound, the T/C [7] was 115 % of control, the T/C [16] was 181 % of control (2×) and 195 % of control and the T/C (dose: 150.0 mg/kg/injection, schedule: Q04DX003 (ip), vehicle: saline) was 272 % of control and 186 % of control. For the same compound, the T/C [11] was 168 % of control.

With `Cc1ccc(S(=O)(=O)N/N=C/c2ccncc2)cc1` the T/C (dose: 12.5 mg/kg/injection, schedule: Q01DX009 (ip), vehicle: other) was 110 % of control, the T/C (dose: 25.0 mg/kg/injection, schedule: Q01DX009 (ip), vehicle: other) was 117 % of control and the T/C [12] was 119 % of control. For the same compound, the T/C [13] was 155 % of control.

`COC1=CC(=O)C=C(OC)C1=O` was tested, and the T/C (dose: 2.0 mg/kg/injection, schedule: Q01DX010 (ip), vehicle: saline) was 105 % of control, the T/C (dose: 4.0 mg/kg/injection, schedule: Q01DX010 (ip), vehicle: saline) was 100 % of control and the T/C (dose: 8.0 mg/kg/injection, schedule: Q01DX010 (ip), vehicle: saline) was 105 % of control.

For `c1ccc2c[n+]3cc4ccccc4cc3cc2c1`, the T/C (dose: 8.75 mg/kg/injection, schedule: Q01DX009 (ip), vehicle: saline) was 95 % of control, the T/C [4] was 91 % of control and the T/C (dose: 17.5 mg/kg/injection, schedule: Q01DX009 (ip), vehicle: saline) was 100 % of control. For the same compound, the T/C [6] was 100 % of control.

With `COc1ccccc1NC(=O)Oc1ccc(OCc2ccccc2)cc1` the T/C [19] was 95 % of control, the T/C [20] was 87 % of control and the T/C [21] was 100 % of control.

For `S=C(NC1CCCCC1)NC1CCCCC1`, the T/C (dose: 50.0 mg/kg/injection, schedule: Q01DX009 (ip), vehicle: Klucel (hydroxypropylcellulose) (HPC)) was 113 % of control, the T/C [7] was 109 % of control and the T/C [8] was 86 % of control. For the same compound, the T/C [9] was 113 % of control, the T/C [10] was 100 % of control and the T/C [11] was 100 % of control.
